Here are results for 1 compound from PubChem BioAssay AID624446 (The Scripps Research Institute Molecular Screening Center, 2012).

Structures are written as SMILES. The source made the active and inactive calls.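 How the source made its calls: active means compounds blocking protein phosphatase 1 with half-maximal inhibitory concentration IC50 under 50 µM; inactive means IC50 of 50 µM or more.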

The assay deals with Serine/threonine-protein phosphatase PP1-alpha catalytic subunit (Homo sapiens) (UniProt P62136). Nature of the assay: PP1alpha inhibitor potency, phosphohistone substrate, late-stage follow-up, selectivity assay for PP5 inhibitor project, biochemical, 32P-phosphohistone, radiolabel, dose response, round 5 (AID 624446). The settings on record: purified PP1alpha, 32P-phosphohistone dephosphorylation, scintillation.
Chain of Serine/threonine-protein phosphatase PP1-alpha catalytic subunit (Homo sapiens) (P62136 whole entry, looked up): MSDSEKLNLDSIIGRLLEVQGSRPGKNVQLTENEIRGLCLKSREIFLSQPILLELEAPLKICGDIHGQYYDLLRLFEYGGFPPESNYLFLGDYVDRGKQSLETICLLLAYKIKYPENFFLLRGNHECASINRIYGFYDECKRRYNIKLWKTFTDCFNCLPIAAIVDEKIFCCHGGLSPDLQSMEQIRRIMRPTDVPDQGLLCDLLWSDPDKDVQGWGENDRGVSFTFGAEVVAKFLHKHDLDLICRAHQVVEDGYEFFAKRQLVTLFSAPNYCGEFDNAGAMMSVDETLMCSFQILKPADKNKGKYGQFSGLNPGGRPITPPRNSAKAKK

For `CC(C)Oc1ccccc1-c1n[nH]nc1C(=O)O`, the IC50 result is “inactive”.
